Tested on: 377384-186-R-J1-PDC complex spheroid viability
Assay: Anticancer human tumor 377384-186-R-J1-PDC patient-derived pancreatic carcinoma cell line growth inhibition [RAS]
Settings: for IC50: curve of first compound; for viability, T/C: stronger effect = lower value
Outline: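 Tumour cells grown as complex spheroids with HUVEC endothelial cells and mesenchymal stem cells, treated with RAS pathway inhibitor combinations. Each agent spans half-log steps from near clinical Cmax, or 10 microM where Cmax is unknown.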

[1] = second compound 0.000949 µM, first compound 0.0316 µM
[2] = second compound 0.000949 µM, first compound 0.1 µM
[3] = second compound 0.000949 µM, first compound 0.316 µM
[4] = second compound 0.000949 µM, first compound 1 µM
[5] = second compound 0.000949 µM, first compound 3.16 µM
[6] = second compound 0.000949 µM, first compound 10 µM
[7] = second compound 0.003 µM, first compound 0.0316 µM
[8] = second compound 0.003 µM, first compound 0.1 µM
[9] = second compound 0.003 µM, first compound 0.316 µM
[10] = second compound 0.003 µM, first compound 1 µM
[11] = second compound 0.003 µM, first compound 3.16 µM
[12] = second compound 0.003 µM, first compound 10 µM
[13] = second compound 0.00949 µM, first compound 0.0316 µM
[14] = second compound 0.00949 µM, first compound 0.1 µM
[15] = second compound 0.00949 µM, first compound 0.316 µM
[16] = second compound 0.00949 µM, first compound 1 µM
[17] = second compound 0.00949 µM, first compound 3.16 µM
[18] = second compound 0.00949 µM, first compound 10 µM
[19] = second compound 0.03 µM, first compound 0.0316 µM
[20] = second compound 0.03 µM, first compound 0.1 µM
[21] = second compound 0.03 µM, first compound 0.316 µM
[22] = second compound 0.03 µM, first compound 1 µM
[23] = second compound 0.03 µM, first compound 3.16 µM
[24] = second compound 0.03 µM, first compound 10 µM
[25] = second compound 0.0949 µM, first compound 0.0316 µM
[26] = second compound 0.0949 µM, first compound 0.1 µM
[27] = second compound 0.0949 µM, first compound 0.316 µM
[28] = second compound 0.0949 µM, first compound 1 µM
[29] = second compound 0.0949 µM, first compound 3.16 µM
[30] = second compound 0.0949 µM, first compound 10 µM
[31] = second compound 0.3 µM, first compound 0.0316 µM
[32] = second compound 0.3 µM, first compound 0.1 µM
[33] = second compound 0.3 µM, first compound 0.316 µM
[34] = second compound 0.3 µM, first compound 1 µM
[35] = second compound 0.3 µM, first compound 3.16 µM
[36] = second compound 0.3 µM, first compound 10 µM
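Note: spheroids exposed to compounds for seven days before readout.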

In the case of `Cc1nc(N2CCC3(CC2)COC(C)C3N)c(CO)nc1Sc1ccnc(N)c1Cl` (stereo unspecified) + CCn1c(-c2cccnc2C(C)OC)c2c3cc(ccc31)N1CCOC(CC(NC(=O)C(C(C)C)N(C)C(=O)C3(F)CCN(C(=O)C#CC(C)(C)N(C)C)CC3)C(=O)N3CCCC(N3)C(=O)OCC(C)(C)C2)C1, the IC50 (second compound 0.000949 µM) is reported as over 10000 nM, the IC50 (second compound 0.003 µM) is reported as over 10000 nM and the IC50 (second compound 0.00949 µM) is reported as over 10000 nM. It also gave an IC50 (second compound 0.03 µM) of over 10000 nM, an IC50 (second compound 0.0949 µM) of over 10000 nM and an IC50 (second compound 0.3 µM) of over 10000 nM. For the same compound, the viability, T/C [1] was 91.7%, the viability, T/C [2] was 84.8% and the viability, T/C [3] was 78.1%. For the same compound, the viability, T/C [4] was 83.8%, the viability, T/C [5] was 79.5% and the viability, T/C [6] was 78.4%. For the same compound, the viability, T/C [7] was 95%, the viability, T/C [8] was 97.7% and the viability, T/C [9] was 95%. The viability, T/C [10] was 84.7%, the viability, T/C [11] was 87.7% and the viability, T/C [12] was 72.6%. The viability, T/C [13] was 103%, the viability, T/C [14] was 74.7% and the viability, T/C [15] was 74.8%. For the same compound, the viability, T/C [16] was 75%, the viability, T/C [17] was 90% and the viability, T/C [18] was 79%. For the same compound, the viability, T/C [19] was 86.2%, the viability, T/C [20] was 87.3% and the viability, T/C [21] was 91%. For the same compound, the viability, T/C [22] was 79%, the viability, T/C [23] was 74.4% and the viability, T/C [24] was 69%. It also gave a viability, T/C [25] of 82.3%, a viability, T/C [26] of 84.8% and a viability, T/C [27] of 70.1%. The viability, T/C [28] was 63.3%, the viability, T/C [29] was 77.9% and the viability, T/C [30] was 71.6%. The viability, T/C [31] was 77.2%, the viability, T/C [32] was 72% and the viability, T/C [33] was 71%. The viability, T/C [34] was 70.9%, the viability, T/C [35] was 66.8% and the viability, T/C [36] was 61%.
`CCc1c2c(nc3ccc(O)cc13)-c1cc3c(c(=O)n1C2)COC(=O)[C@]3(O)CC` + C=CC(=O)N1CCN(c2nc(OCC3CCCN3C)nc3c(F)c(-c4nc(N)cc(C)c4C(F)(F)F)c(Cl)cc23)C(C)C1 showed an IC50 (second compound 0.00316 µM) of 1.55 nM, an IC50 (second compound 0.01 µM) of 1.4 nM and an IC50 (second compound 0.0316 µM) of 1.41 nM. It also gave an IC50 (second compound 0.1 µM) of 1.24 nM, an IC50 (second compound 0.316 µM) of 1.38 nM and an IC50 (second compound 1 µM) of 1.18 nM. The viability, T/C (second compound 0.00316 µM, first compound 0.000949 µM) was 62.2%, the viability, T/C (second compound 0.00316 µM, first compound 0.003 µM) was 33.5% and the viability, T/C (second compound 0.00316 µM, first compound 0.00949 µM) was 14.6%. For the same compound, the viability, T/C (second compound 0.00316 µM, first compound 0.03 µM) was 6.38%, the viability, T/C (second compound 0.00316 µM, first compound 0.0949 µM) was 2.5% and the viability, T/C (second compound 0.00316 µM, first compound 0.3 µM) was 1.05%. It also gave a viability, T/C (second compound 0.01 µM, first compound 0.000949 µM) of 59%, a viability, T/C (second compound 0.01 µM, first compound 0.003 µM) of 31.9% and a viability, T/C (second compound 0.01 µM, first compound 0.00949 µM) of 18.1%. The viability, T/C (second compound 0.01 µM, first compound 0.03 µM) was 5.58%, the viability, T/C (second compound 0.01 µM, first compound 0.0949 µM) was 2.2% and the viability, T/C (second compound 0.01 µM, first compound 0.3 µM) was 1.1%. It also gave a viability, T/C (second compound 0.0316 µM, first compound 0.000949 µM) of 61%, a viability, T/C (second compound 0.0316 µM, first compound 0.003 µM) of 28.6% and a viability, T/C (second compound 0.0316 µM, first compound 0.00949 µM) of 14%. For the same compound, the viability, T/C (second compound 0.0316 µM, first compound 0.03 µM) was 6.21%, the viability, T/C (second compound 0.0316 µM, first compound 0.0949 µM) was 2.11% and the viability, T/C (second compound 0.0316 µM, first compound 0.3 µM) was 1.21%. The viability, T/C (second compound 0.1 µM, first compound 0.000949 µM) was 55.5%, the viability, T/C (second compound 0.1 µM, first compound 0.003 µM) was 32.2% and the viability, T/C (second compound 0.1 µM, first compound 0.00949 µM) was 15.7%. The viability, T/C (second compound 0.1 µM, first compound 0.03 µM) was 4.22%, the viability, T/C (second compound 0.1 µM, first compound 0.0949 µM) was 2.88% and the viability, T/C (second compound 0.1 µM, first compound 0.3 µM) was 0.95%. The viability, T/C (second compound 0.316 µM, first compound 0.000949 µM) was 57.9%, the viability, T/C (second compound 0.316 µM, first compound 0.003 µM) was 33.1% and the viability, T/C (second compound 0.316 µM, first compound 0.00949 µM) was 17.6%. It also gave a viability, T/C (second compound 0.316 µM, first compound 0.03 µM) of 6.72%, a viability, T/C (second compound 0.316 µM, first compound 0.0949 µM) of 2.76% and a viability, T/C (second compound 0.316 µM, first compound 0.3 µM) of 1%. For the same compound, the viability, T/C (second compound 1 µM, first compound 0.000949 µM) was 53.6%, the viability, T/C (second compound 1 µM, first compound 0.003 µM) was 33.9% and the viability, T/C (second compound 1 µM, first compound 0.00949 µM) was 18.9%. It also gave a viability, T/C (second compound 1 µM, first compound 0.03 µM) of 7.03%, a viability, T/C (second compound 1 µM, first compound 0.0949 µM) of 2.97% and a viability, T/C (second compound 1 µM, first compound 0.3 µM) of 1.13%.
Compound `CC(=O)OC12COC1CC(O)C1(C)C(=O)C(O)C3=C(C)C(OC(=O)C(O)C(NC(=O)OC(C)(C)C)c4ccccc4)CC(O)(C(OC(=O)c4ccccc4)C21)C3(C)C` (stereo unspecified) + CCn1c(-c2cccnc2C(C)OC)c2c3cc(ccc31)N1CCOC(CC(NC(=O)C(C(C)C)N(C)C(=O)C3(F)CCN(C(=O)C#CC(C)(C)N(C)C)CC3)C(=O)N3CCCC(N3)C(=O)OCC(C)(C)C2)C1 has an IC50 (second compound 0.000949 µM) of under 31.6 nM, an IC50 (second compound 0.003 µM) of under 31.6 nM and an IC50 (second compound 0.00949 µM) of under 31.6 nM. It also gave an IC50 (second compound 0.03 µM) of under 31.6 nM, an IC50 (second compound 0.0949 µM) of under 31.6 nM and an IC50 (second compound 0.3 µM) of under 31.6 nM. For the same compound, the viability, T/C [1] was 10.2%, the viability, T/C [2] was 10.2% and the viability, T/C [3] was 11%. The viability, T/C [4] was 14.1%, the viability, T/C [5] was 14.5% and the viability, T/C [6] was 15.6%. The viability, T/C [7] was 11.1%, the viability, T/C [8] was 15.1% and the viability, T/C [9] was 11%. For the same compound, the viability, T/C [10] was 12.9%, the viability, T/C [11] was 14.7% and the viability, T/C [12] was 15.9%. For the same compound, the viability, T/C [13] was 10.5%, the viability, T/C [14] was 11.6% and the viability, T/C [15] was 12.5%. It also gave a viability, T/C [16] of 12%, a viability, T/C [17] of 13.7% and a viability, T/C [18] of 14.4%. It also gave a viability, T/C [19] of 9.38%, a viability, T/C [20] of 11.6% and a viability, T/C [21] of 12.8%. For the same compound, the viability, T/C [22] was 12.5%, the viability, T/C [23] was 13.4% and the viability, T/C [24] was 15.4%. It also gave a viability, T/C [25] of 9.14%, a viability, T/C [26] of 10.3% and a viability, T/C [27] of 12.3%. The viability, T/C [28] was 12.8%, the viability, T/C [29] was 13.1% and the viability, T/C [30] was 12.8%. It also gave a viability, T/C [31] of 6.36%, a viability, T/C [32] of 8.8% and a viability, T/C [33] of 9.95%. For the same compound, the viability, T/C [34] was 11.7%, the viability, T/C [35] was 12.3% and the viability, T/C [36] was 12%.
